Reference: patent publication US20160075653A1, “NEMATICIDAL N-(PHENYLCYCLOALKYL)CARBOXAMIDES AND N-(PHENYLCYCLOALKYL)THIOCARBOXAMIDES” (BAYER CROPSCIENCE AKTIENGESELLSCHAFT, priority 2013, published 2016)
Where two headings read alike, the source gives them in different places. Values belong to the molecule of their own block, whether it stands above or below them.

Assay: Measurement of log P values by HPLC on reversed phase columns (methods [a] pH 2.3, [b] pH 2.7, [c] pH 7.8)
Format: physicochemical
Details: for chromatographic logP: reversed phase HPLC columns
Procedure, shortened: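 Determined per EEC Directive 79/831 Annex V.A8 by reversed-phase HPLC, 10-95% acetonitrile gradient: [a] pH 2.3, 0.1% phosphoric acid; [b] LC-MS, pH 2.7, 0.1% formic acid; [c] LC-MS, pH 7.8, 0.001 molar ammonium hydrogen carbonate. Calibrated with C3-C16 alkan-2-ones by retention-time interpolation.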

[1] = HPLC reversed phase, method [b] (pH 2.7)
[2] = HPLC reversed phase, method [c] pH 7.8
[3] = HPLC on reversed phase column, method [b], pH 2.7
[4] = HPLC on reversed phase column, method [c], pH 7.8
[5] = pH 2.7, HPLC on reversed phase columns, method [b] (pH 2.7), read-out: logP
[6] = method [b], HPLC reversed phase, pH 2.7
[7] = HPLC on reversed phase columns, method [b], pH 2.7
[8] = method [c], HPLC reversed phase, pH 7.8

logP [1]: 3.73^[b]
logP [2]: 3.68^[c];
Compound: O=C(N[C@@H]1CCC[C@@H]1c1ccc(C(F)(F)F)cc1)c1ccccc1Br (relative stereo) [Example 303]

logP [3]: 2.99^[b]
logP [4]: 2.94^[c];
Compound: Cn1ncc(C(=O)N[C@@H]2C[C@@H]2c2ccc(Cl)cc2Cl)c1C(F)F (relative stereo) [Example 612]

chromatographic logP [5]: 4.28
Compound: O=C(N[C@@H]1CC[C@@H]1c1c(Cl)cccc1Cl)c1ncc(C(F)(F)F)cc1Cl [Example 744]

logP [1]: 2.72^[b]
Compound: Cn1cc(C(=O)N[C@@H]2CC[C@H]2c2ccccc2Cl)c(C(F)F)n1 (relative stereo) [Example 262]

logP [6]: 3.94^[b]
Compound: Cc1nn(C)c(F)c1C(=O)N(C1CC1)C1CCCCC1c1ccccc1Cl (stereo not shown) [Example 154]

Compound: O=C(N[C@@H]1CC[C@@H]1c1ccccc1Cl)c1sccc1I (relative stereo) [Compound 546]
logP [1]: 3.72^[b]

logP [3]: 4.65^[b]
Compound: O=C(N[C@@H]1CC[C@H]1c1ccc(Cl)cc1C(F)(F)F)c1ncc(C(F)(F)F)cc1Cl (relative stereo) [Example 700]

Compound: O=C(NC1CCC1c1ccc(Cl)cc1Cl)c1ccccc1Br (stereo not shown) [Example 471]
logP [1]: 3.92^[b]

logP [3]: 4.43^[b]
Compound: O=C(N[C@@H]1CC[C@H]1c1ccc(Cl)cc1C(F)(F)F)c1ccc(Cl)cc1 (relative stereo) [Example 706]

chromatographic logP [5]: 3.09
Compound: O=C(N[C@@H]1CC[C@@H]1c1ccc(Cl)cc1C(F)(F)F)c1cccnc1Cl [Example 739]

logP [3]: 3.50^[b]
Compound: O=C(N[C@@H]1CC[C@H]1c1cccc(F)c1C(F)(F)F)c1ccc(Cl)cc1Cl (relative stereo) [Example 593]

logP [1]: 2.81^[b]
Compound: O=C(NC1CCCC1c1ccc(Cl)cc1)c1cccnc1Cl (stereo not shown) [Example 281]

logP [3]: 3.88^[b]
Compound: O=C(N[C@@H]1CC[C@H]1c1cccc(F)c1C(F)(F)F)c1ccc(Cl)cc1 (relative stereo) [Example 600]

logP [1]: 3.30^[b]
logP [2]: 3.25^[c];
Compound: CC(C)Oc1ccc([C@H]2CCC[C@H]2NC(=O)c2ccccc2[N+](=O)[O-])cc1 (relative stereo) [Example 318]

logP [7]: 2.00^[b]
Compound: Cn1cc(C(=O)N[C@@H]2CCC[C@@H]2c2ccc(F)c(F)c2)c(=O)[nH]1 (relative stereo) [Example 113]

logP [6]: 3.00^[b]
Compound: Cn1nc(C(F)F)c(C(=O)NC2CC2c2ccccc2C(F)(F)F)c1F (stereo not shown) [Example 189]

logP [1]: 3.16^[b]
Compound: O=C(NC1CCCCC1c1ccccc1Cl)c1cccnc1Cl (stereo not shown) [Example 380]

logP [1]: 4.16^[b]
Compound: O=C(N[C@@H]1CC[C@@H]1c1ccc(Cl)cc1Cl)c1ccc(Cl)cc1Cl (relative stereo) [Example 266]

Compound: O=C(NC1CC1c1ccc(Cl)cc1)c1sccc1Cl (stereo not shown) [Compound 203]
logP [6]: 3.51^[b]
logP [8]: 3.45^[c];

logP [3]: 3.84^[b]
Compound: O=C(N[C@@H]1CC[C@H]1c1ccc(Cl)cc1C(F)(F)F)c1ncccc1Cl (relative stereo) [Example 698]

Compound: O=C(NC1CC1c1ccc(Cl)cc1)c1cccnc1Cl (stereo not shown) [Example 34]
logP [7]: 2.43^[b]
logP (HPLC on reversed phase columns, method [c], pH 7.8): 2.39^[c];

logP [1]: 3.85^[b]
Compound: O=C(N[C@@H]1CC[C@@H]1c1cc(F)ccc1C(F)(F)F)c1ccc(Cl)cc1Cl (relative stereo) [Example 557]

logP [1]: 2.93^[b]
Compound: O=C(N[C@@H]1CC[C@H]1c1ccc(F)cc1C(F)(F)F)c1cccnc1Cl (relative stereo) [Example 524]

logP [1]: 3.42^[b]
Compound: O=C(N[C@@H]1CC[C@H]1c1ccc(F)cc1C(F)(F)F)c1ccccc1 (relative stereo) [Example 504]

logP [7]: 2.36^[b]
Compound: CCOc1nn(C)cc1C(=O)N[C@@H]1C[C@H]1c1ccccc1 (relative stereo) [Example 43]

chromatographic logP [5]: 3.71
Compound: O=C(N[C@@H]1CC[C@@H]1c1c(Cl)cccc1Cl)c1ccccc1C(F)(F)F [Example 736]

logP [6]: 3.15^[b]
Compound: Cn1nc(C(F)F)c(C(=O)NC2CC2c2ccccc2C(F)(F)F)c1Cl (stereo not shown) [Example 193]

logP [1]: 3.30^[b]
logP [2]: 3.28^[c];
Compound: O=C(N[C@@H]1CCC[C@@H]1c1ccccc1F)c1ccccc1I (relative stereo) [Example 332]

logP [1]: 2.92^[b]
Compound: O=C(N[C@@H]1CC[C@H]1c1ccccc1Cl)c1ccccc1[N+](=O)[O-] (relative stereo) [Example 547]

logP [1]: 3.35^[b]
Compound: Cc1nc(C(F)(F)F)c(C(=O)N[C@@H]2CC[C@@H]2c2ccc(F)cc2C(F)(F)F)s1 (relative stereo) [Example 531]

logP [1]: 3.83^[b]
logP [2]: 3.79^[c];
Compound: O=C(N[C@@H]1CCC[C@@H]1c1ccc(C(F)(F)F)cc1)c1ccccc1C(F)(F)F (relative stereo) [Example 302]

logP [3]: 2.26^[b]
Compound: O=C(N[C@@H]1CC[C@H]1c1ccccc1C(F)(F)F)c1cccnc1 (relative stereo) [Example 618]

logP [6]: 5.17^[b]
Compound: Cc1cc(C(=O)N(C2CC2)C2CCCCC2c2ccccc2Cl)c(C)o1 (stereo not shown) [Example 177]

logP [1]: 2.87^[b]
Compound: Cc1nn(C)cc1C(=O)NC1CCCCC1c1ccccc1C(F)(F)F (stereo not shown) [Example 384]

logP [1]: 2.99^[b]
Compound: O=C(NC1CCCCC1c1ccc(Cl)cc1)c1cccnc1Cl (stereo not shown) [Example 370]

logP [7]: 3.50^[b]
Compound: O=C(N[C@@H]1CCC[C@@H]1c1ccc(F)c(F)c1)c1ccccc1C(F)(F)F (relative stereo) [Example 88]

logP [6]: 3.66^[b]
logP [8]: 3.55^[c];
Compound: O=C(NC1CC1c1ccc(Cl)cc1Cl)c1ccccc1F (stereo not shown) [Example 205]

logP [1]: 3.81^[b]
logP [2]: 3.74^[c];
Compound: CC(C)Oc1ccc([C@H]2CCC[C@H]2NC(=O)c2ccccc2Br)cc1 (relative stereo) [Example 327]

logP [1]: 3.18^[b]
logP [2]: 3.14^[c];
Compound: O=C(N[C@@H]1CCC[C@@H]1c1ccccc1F)c1ccccc1Br (relative stereo) [Example 319]

logP [3]: 3.50^[b]
Compound: O=C(N[C@@H]1CC[C@@H]1c1cccc(F)c1C(F)(F)F)c1cccc(Cl)c1 (relative stereo) [Example 597]

chromatographic logP (HPLC-MS, method letter not given, read-out: log P): 3.3
Compound: O=C(N[C@H]1CCC1c1ccccc1C(F)(F)F)c1ccccc1Cl (stereo in doubt) [Preparation Example 4, cis-2-chloro-N-{2-[2-(trifluoromethyl)phenyl]cyclobutyl}benzamide]

logP [1]: 2.42^[b]
Compound: Cn1cc(C(=O)NC2CCC2c2c(F)cccc2F)c(C(F)F)n1 (stereo not shown) [Example 486]

Compound: O=C(N[C@@H]1C[C@@H]1c1ccc(Cl)cc1Cl)c1ccccc1I (relative stereo) [Compound 578]
logP [1]: 3.43^[b]

logP [6]: 3.74^[b]
logP [8]: 3.64^[c];
Compound: O=C(NC1CC1c1ccc(Cl)cc1Cl)c1ccccc1I (stereo not shown) [Example 208]

logP [1]: 3.51^[b]
logP [2]: 3.47^[c];
Compound: O=C(N[C@@H]1CCC[C@@H]1c1ccc(C(F)(F)F)cc1)c1c(F)cccc1F (relative stereo) [Example 304]

logP [1]: 3.35^[b]
Compound: O=C(NC1CCCC1c1ccccc1Br)c1c(F)cccc1F (stereo not shown) [Example 347]

logP [1]: 1.86^[b]
logP [2]: 1.95^[c];
Compound: O=C(N[C@@H]1CCC[C@@H]1c1ccccc1F)c1ccccn1 (relative stereo) [Example 339]

logP [7]: 3.68^[b]
Compound: O=C(N[C@@H]1CCC[C@@H]1c1ccc(F)c(F)c1)c1ccc(C(F)(F)F)nc1Cl (relative stereo) [Example 124]

logP [7]: 2.64^[b]
Compound: COc1nn(C)cc1C(=O)N[C@@H]1CCC[C@@H]1c1ccc(F)c(F)c1 (relative stereo) [Example 76]

logP [3]: 2.75^[b]
Compound: Cn1cc(C(=O)N[C@@H]2CC[C@@H]2c2cccc(F)c2C(F)(F)F)c(C(F)F)n1 (relative stereo) [Example 643]

logP [1]: 4.57^[b]
Compound: O=C(NC1CCCCC1c1ccc(Cl)cc1Cl)c1ccccc1I (stereo not shown) [Example 415]

logP [7]: 2.76^[b]
Compound: O=C(N[C@@H]1CCC[C@@H]1c1ccc(F)c(F)c1)c1cccnc1F (relative stereo) [Example 68]

logP [6]: 2.45^[b]
Compound: Cn1cc(C(=O)NC2CC2c2ccccc2Cl)c(C(F)F)n1 (stereo not shown) [Example 231]

logP [7]: 3.35^[b]
Compound: O=C(N[C@@H]1CCC[C@H]1c1ccc(F)c(F)c1)c1ccccc1F (relative stereo) [Example 105]

logP [1]: 3.72^[b]
Compound: O=C(N[C@@H]1CC[C@@H]1c1c(F)cccc1C(F)(F)F)c1ccc(Cl)cc1 (relative stereo) [Example 536]

logP [1]: 3.88^[b]
Compound: Cc1nc(C)c(C(=O)NC2CCCCC2c2ccc(Cl)cc2Cl)s1 (stereo not shown) [Example 410]

logP [7]: 3.27^[b]
Compound: Cn1cc(C(=O)N[C@@H]2CCC[C@@H]2c2ccc(F)c(F)c2)c(C(F)(F)F)c1 (relative stereo) [Example 91]

logP [7]: 4.19^[b]
Compound: O=C(N[C@@H]1CCC[C@@H]1c1ccc(F)c(F)c1)c1snc(Cl)c1Cl (relative stereo) [Example 121]

logP [7]: 2.92^[b]
Compound: Cc1nnsc1C(=O)N[C@@H]1CCC[C@H]1c1ccc(F)c(F)c1 (relative stereo) [Example 109]

logP [1]: 2.49^[b]
Compound: Cc1nn(C)cc1C(=O)NC1CCCCC1c1ccc(Cl)cc1 (stereo not shown) [Example 367]

logP [1]: 3.63^[b]
Compound: O=C(N[C@@H]1CC[C@H]1c1cccc(F)c1C(F)(F)F)c1ccccc1C(F)(F)F (relative stereo) [Example 588]

logP [1]: 3.31^[b]
Compound: O=C(NC1CCCCC1c1ccc(Cl)cc1)c1cccnc1C(F)(F)F (stereo not shown) [Example 368]

logP [7]: 3.17^[b]
Compound: Cn1cc(C(=O)NC2CCC2c2ccc(Cl)cc2C(F)(F)F)c(C(F)F)n1 (stereo not shown) [Example 719]

logP [3]: 4.02^[b]
logP [4]: 3.94^[c];
Compound: O=C(N[C@@H]1CC[C@@H]1c1ccc(Br)cc1C(F)(F)F)c1ccccc1C(F)(F)F (relative stereo) [Example 656]

logP [3]: 4.46^[b]
Compound: O=C(N[C@@H]1CC[C@H]1c1ccc(Cl)cc1C(F)(F)F)c1cccc(Cl)c1 (relative stereo) [Example 708]
